ChEMBL document CHEMBL3885881, “DrugMatrix”

Organism: Rattus norvegicus
Assay: DrugMatrix - Regimen: Daily Repeat
Assay type: toxicity, organism-based, Sprague-Dawley
Design: regimen Daily Repeat, gender Male, age 6-8 weeks
Details: in vivo, iv, vehicle 100 % SALINE; for ABSOLUTE BASOPHIL / ABSOLUTE EOSINOPHIL / ABSOLUTE LYMPHOCYTE / ABSOLUTE MONOCYTE / ABSOLUTE SEGMENTED NEUTROPHIL / BASOPHIL / EOSINOPHIL / ERYTHROCYTE COUNT / HEMATOCRIT / HEMOGLOBIN / LEUKOCYTE COUNT / LYMPHOCYTE / MEAN CORPUSCULAR HEMOGLOBIN / MEAN CORPUSCULAR HEMOGLOBIN CONCENTRATION / MEAN CORPUSCULAR VOLUME / MONOCYTE / NEUTROPHIL / NUCLEATED RED BLOOD CELLS / PLATELET COUNT: tissue Blood; for ALANINE AMINOTRANSFERASE / ALBUMIN / ALKALINE PHOSPHATASE / ASPARTATE AMINOTRANSFERASE / BLOOD UREA NITROGEN / CARBON DIOXIDE / CHLORIDE / CHOLESTEROL / CREATINE PHOSPHOKINASE / CREATININE / GLUCOSE / LACTATE DEHYDROGENASE / LIPASE / PHOSPHORUS / POTASSIUM / SODIUM / TOTAL BILIRUBIN / TOTAL PROTEIN / URIC ACID: tissue Plasma
[1] = 100 mg/kg, 72 h, dose level Low, time 3 day
[2] = 100 mg/kg, 120 h, dose level Low, time 5 day
[3] = 1000 mg/kg, 72 h, dose level High, time 3 day
[4] = 1000 mg/kg, 120 h, dose level High, time 5 day

With `OC[C@@H](O)[C@@H](O)[C@H](O)[C@H](O)CO` [MANNITOL] the “ABSOLUTE BASOPHIL” value [1] was 0 CELLS/uL, the “ABSOLUTE EOSINOPHIL” value [1] was 269 CELLS/uL and the “ABSOLUTE LYMPHOCYTE” value [1] was 11772.67 CELLS/uL. For the same compound, the “ABSOLUTE MONOCYTE” value [1] was 286.33 CELLS/uL, the “ABSOLUTE SEGMENTED NEUTROPHIL” value [1] was 638.67 CELLS/uL and the BASOPHIL [1] was 0%. The EOSINOPHIL [1] was 2%, the “ERYTHROCYTE COUNT” value [1] was 5.91 x10E6/uL and the HEMATOCRIT [1] was 37.23%. For the same compound, the HEMOGLOBIN [1] was 13.83 G/DL, the “LEUKOCYTE COUNT” value [1] was 12.97 x10E3/uL and the LYMPHOCYTE [1] was 90.67%. The “MEAN CORPUSCULAR HEMOGLOBIN” value [1] was 23.43 pg, the “MEAN CORPUSCULAR HEMOGLOBIN CONCENTRATION” value [1] was 37.1 G/DL and the “MEAN CORPUSCULAR VOLUME” value [1] was 62.97 fL. For the same compound, the MONOCYTE [1] was 2.33%, the NEUTROPHIL [1] was 5% and the “NUCLEATED RED BLOOD CELLS” value [1] was 0 /100WBC. The “PLATELET COUNT” value [1] was 1250.33 x10E3/uL, the “ALANINE AMINOTRANSFERASE” value [1] was 48.67 u/L and the ALBUMIN [1] was 4.13 G/DL. The “ALKALINE PHOSPHATASE” value [1] was 350 u/L, the “ASPARTATE AMINOTRANSFERASE” value [1] was 97.33 u/L and the “BLOOD UREA NITROGEN” value [1] was 16.33 mg/dL. The “CARBON DIOXIDE” value [1] was 24.67 mmol/L, the CHLORIDE [1] was 104 MEQ/L and the CHOLESTEROL [1] was 77.67 mg/dL. The “CREATINE PHOSPHOKINASE” value [1] was 393.67 u/L, the CREATININE [1] was 0.2 mg/dL and the GLUCOSE [1] was 160.33 mg/dL. The “LACTATE DEHYDROGENASE” value [1] was 480.67 u/L, the LIPASE [1] was 8.67 u/L and the PHOSPHORUS [1] was 13.8 mg/dL. The POTASSIUM [1] was 6.9 MEQ/L, the SODIUM [1] was 146.1 MEQ/L and the “TOTAL BILIRUBIN” value [1] was 0.2 mg/dL. For the same compound, the “TOTAL PROTEIN” value [1] was 5.93 G/DL, the “URIC ACID” value [1] was 1.7 mg/dL and the “ABSOLUTE BASOPHIL” value [2] was 0 CELLS/uL. For the same compound, the “ABSOLUTE EOSINOPHIL” value [2] was 0 CELLS/uL, the “ABSOLUTE LYMPHOCYTE” value [2] was 12262.33 CELLS/uL and the “ABSOLUTE MONOCYTE” value [2] was 402.33 CELLS/uL. The “ABSOLUTE SEGMENTED NEUTROPHIL” value [2] was 1202 CELLS/uL, the BASOPHIL [2] was 0% and the EOSINOPHIL [2] was 0%. The “ERYTHROCYTE COUNT” value [2] was 5.62 x10E6/uL, the HEMATOCRIT [2] was 34.87% and the HEMOGLOBIN [2] was 12.8 G/DL. The “LEUKOCYTE COUNT” value [2] was 13.87 x10E3/uL, the LYMPHOCYTE [2] was 88.33% and the “MEAN CORPUSCULAR HEMOGLOBIN” value [2] was 22.77 pg. For the same compound, the “MEAN CORPUSCULAR HEMOGLOBIN CONCENTRATION” value [2] was 36.73 G/DL, the “MEAN CORPUSCULAR VOLUME” value [2] was 62 fL and the MONOCYTE [2] was 3%. For the same compound, the NEUTROPHIL [2] was 8.67%, the “NUCLEATED RED BLOOD CELLS” value [2] was 0 /100WBC and the “PLATELET COUNT” value [2] was 1182.33 x10E3/uL. The “ALANINE AMINOTRANSFERASE” value [2] was 73.33 u/L, the ALBUMIN [2] was 4.27 G/DL and the “ALKALINE PHOSPHATASE” value [2] was 396 u/L. The “ASPARTATE AMINOTRANSFERASE” value [2] was 130.33 u/L, the “BLOOD UREA NITROGEN” value [2] was 17.67 mg/dL and the “CARBON DIOXIDE” value [2] was 21.67 mmol/L. The CHLORIDE [2] was 110.67 MEQ/L, the CHOLESTEROL [2] was 83 mg/dL and the “CREATINE PHOSPHOKINASE” value [2] was 1094.67 u/L. For the same compound, the CREATININE [2] was 0.15 mg/dL, the GLUCOSE [2] was 196.33 mg/dL and the “LACTATE DEHYDROGENASE” value [2] was 396.67 u/L. For the same compound, the LIPASE [2] was 9.67 u/L, the PHOSPHORUS [2] was 14.1 mg/dL and the POTASSIUM [2] was 6.09 MEQ/L. The SODIUM [2] was 148.6 MEQ/L, the “TOTAL BILIRUBIN” value [2] was 0.13 mg/dL and the “TOTAL PROTEIN” value [2] was 5.73 G/DL. The “URIC ACID” value [2] was 2.53 mg/dL, the “ABSOLUTE BASOPHIL” value [3] was 0 CELLS/uL and the “ABSOLUTE EOSINOPHIL” value [3] was 168 CELLS/uL. For the same compound, the “ABSOLUTE LYMPHOCYTE” value [3] was 12528 CELLS/uL, the “ABSOLUTE MONOCYTE” value [3] was 421 CELLS/uL and the “ABSOLUTE SEGMENTED NEUTROPHIL” value [3] was 916.33 CELLS/uL. The BASOPHIL [3] was 0%, the EOSINOPHIL [3] was 1.33% and the “ERYTHROCYTE COUNT” value [3] was 5.26 x10E6/uL. For the same compound, the HEMATOCRIT [3] was 34.8%, the HEMOGLOBIN [3] was 13.1 G/DL and the “LEUKOCYTE COUNT” value [3] was 14.03 x10E3/uL. The LYMPHOCYTE [3] was 89%, the “MEAN CORPUSCULAR HEMOGLOBIN” value [3] was 24.9 pg and the “MEAN CORPUSCULAR HEMOGLOBIN CONCENTRATION” value [3] was 37.7 G/DL. The “MEAN CORPUSCULAR VOLUME” value [3] was 66.13 fL, the MONOCYTE [3] was 3% and the NEUTROPHIL [3] was 6.67%. For the same compound, the “NUCLEATED RED BLOOD CELLS” value [3] was 0 /100WBC, the “PLATELET COUNT” value [3] was 1218.33 x10E3/uL and the “ALANINE AMINOTRANSFERASE” value [3] was 45 u/L. For the same compound, the ALBUMIN [3] was 4.1 G/DL, the “ALKALINE PHOSPHATASE” value [3] was 339.33 u/L and the “ASPARTATE AMINOTRANSFERASE” value [3] was 74.33 u/L. For the same compound, the “BLOOD UREA NITROGEN” value [3] was 14.67 mg/dL, the “CARBON DIOXIDE” value [3] was 21.67 mmol/L and the CHLORIDE [3] was 105 MEQ/L. The CHOLESTEROL [3] was 68.33 mg/dL, the “CREATINE PHOSPHOKINASE” value [3] was 402.67 u/L and the CREATININE [3] was 0.13 mg/dL. For the same compound, the GLUCOSE [3] was 181.67 mg/dL, the “LACTATE DEHYDROGENASE” value [3] was 239.67 u/L and the LIPASE [3] was 9.33 u/L. The PHOSPHORUS [3] was 14.13 mg/dL, the POTASSIUM [3] was 6.11 MEQ/L and the SODIUM [3] was 145 MEQ/L. For the same compound, the “TOTAL BILIRUBIN” value [3] was 0.23 mg/dL, the “TOTAL PROTEIN” value [3] was 5.93 G/DL and the “URIC ACID” value [3] was 1.77 mg/dL. The “ABSOLUTE BASOPHIL” value [4] was 0 CELLS/uL, the “ABSOLUTE EOSINOPHIL” value [4] was 45 CELLS/uL and the “ABSOLUTE LYMPHOCYTE” value [4] was 12203.33 CELLS/uL. For the same compound, the “ABSOLUTE MONOCYTE” value [4] was 139 CELLS/uL, the “ABSOLUTE SEGMENTED NEUTROPHIL” value [4] was 779.33 CELLS/uL and the BASOPHIL [4] was 0%. For the same compound, the EOSINOPHIL [4] was 0.33%, the “ERYTHROCYTE COUNT” value [4] was 5.59 x10E6/uL and the HEMATOCRIT [4] was 35.07%. For the same compound, the HEMOGLOBIN [4] was 13.4 G/DL, the “LEUKOCYTE COUNT” value [4] was 13.17 x10E3/uL and the LYMPHOCYTE [4] was 92.67%. The “MEAN CORPUSCULAR HEMOGLOBIN” value [4] was 23.97 pg, the “MEAN CORPUSCULAR HEMOGLOBIN CONCENTRATION” value [4] was 38.27 G/DL and the “MEAN CORPUSCULAR VOLUME” value [4] was 62.67 fL. For the same compound, the MONOCYTE [4] was 1%, the NEUTROPHIL [4] was 6% and the “NUCLEATED RED BLOOD CELLS” value [4] was 0 /100WBC. The “PLATELET COUNT” value [4] was 1310 x10E3/uL, the “ALANINE AMINOTRANSFERASE” value [4] was 39 u/L and the ALBUMIN [4] was 4.3 G/DL. The “ALKALINE PHOSPHATASE” value [4] was 331.67 u/L, the “ASPARTATE AMINOTRANSFERASE” value [4] was 64.67 u/L and the “BLOOD UREA NITROGEN” value [4] was 17.33 mg/dL. The “CARBON DIOXIDE” value [4] was 25.67 mmol/L, the CHLORIDE [4] was 109.67 MEQ/L and the CHOLESTEROL [4] was 67.67 mg/dL. For the same compound, the “CREATINE PHOSPHOKINASE” value [4] was 165.33 u/L, the CREATININE [4] was 0.19 mg/dL and the GLUCOSE [4] was 172.33 mg/dL. For the same compound, the “LACTATE DEHYDROGENASE” value [4] was 106.33 u/L, the LIPASE [4] was 8.67 u/L and the PHOSPHORUS [4] was 12.67 mg/dL. For the same compound, the POTASSIUM [4] was 6.4 MEQ/L, the SODIUM [4] was 148.93 MEQ/L and the “TOTAL BILIRUBIN” value [4] was 0.2 mg/dL. The “TOTAL PROTEIN” value [4] was 6.3 G/DL and the “URIC ACID” value [4] was 1.67 mg/dL.
